The values below come from patent publication US20110207741A1, “Activation of the Renin-Angiotensin System (RAS) and Sudden Cardiac Death” (THE BOARD OF TRUSTEES OF THE UNIVERSITY OF ILLINOIS, priority 2010, published 2011).

Several values for one entry are separate records, joined by “and”; a condition that tells them apart may be missing. Equal entries are not always repeated.

For data set [1], the system named is ACE8/8 mice. Put plainly: Kaplan-Meier survival analysis of ACE8/8 mice (sudden cardiac death). It is filed as in vivo, mouse. As to conditions: 1.5 mg/kg intraperitoneal twice weekly, 30 days of treatment and observation, untreated ACE8/8 10.2±1.5 days. As to the method:
Previously, a transgenic mouse model of RAS activation was developed by overexpressing ACE restricted to the heart (ACE8/8 mice) via replacement of the somatic ACE promoter with the cardiac-specific α-myosin heavy chain promoter (9). These mice (ACE8/8) are not hypertensive, have structurally normal hearts with a normal left ventricular ejection fraction (LVEF), and have no ventricular fibrosis.
(§1) The animal experiments were conducted according to the National Institutes of Health (NIH) Guide for the Care and Use of Experimental Animals and were approved by the University of Illinois Institutional Animal Care and Use Committee. Mice of both sexes were treated with 1.5-mg/kg PP1 (Enzo Life Sciences, Plymouth Meeting, Pa.), a specific inhibitor of c-Src tyrosine kinase, twice weekly for 4 consecutive weeks by intraperitoneal injection (21-23). PP3 (Enzo Life Sciences) was administered intraperitoneally at the same dose (1.5 mg/kg twice weekly for 4 consecutive weeks). The treatment of all animals was initiated when the mice were 30 days old.
The values are presented as the mean±the SEM. […] The survival data were analyzed with the Kaplan-Meier method, and the value was calculated with the log-rank test. The correlation was assessed with the Pearson correlation coefficient method.

The subject of the next data set is wild-type mice. As to the kind of experiment: Treatment of wild-type mice with PP1 (deaths, adverse reactions). It is filed as in vivo, mouse. As to the method:
as §1

Data set [2] deals with ACE8/8 mice. As to the kind of experiment: Electrophysiology study: VT inducibility by burst pacing. It is filed as in vivo, mouse. As to conditions: treated ACE8/8 mice, untreated ACE8/8 86.9%, wild-type 3.3%. As to the method:
as §1
The mice were anesthetized with an intraperitoneal injection of ketamine (100 mg/kg) and xylazine (5 mg/kg). After cutdown, a 1.1-F catheter with 0.5-mm interelectrode spacing (EPR 800, Millar Instruments, Houston, Tex.) was placed into the right jugular vein and was advanced into the right ventricle. A constant current stimulator (A320, World Precision Instruments, Sarasota, Fla.) connected to a laptop computer was used for cardiac stimulation. During the experiment, body temperature was maintained at 37° C. with a warming pad. Burst pacing at cycle lengths of 100 to 50 ms was used to test for VT inducibility. A rhythm with more than 3 consecutive ventricular beats was considered to be VT.

The target in the next data set is T1, c-Src (Mus musculus, UniProt P05480).
T1 construct: The ventricular tissue was homogenized in a buffer; from tissue; host or cells: mouse ventricular tissue (wild-type and ACE8/8 mice)
As to the kind of experiment: Western blot of ventricular tissue, total c-Src. As to conditions: four weeks i.p. treatment, corrected for GAPDH. It is filed as in vivo. As to the method: as §1
(§2) The mice were killed, and their hearts were excised. The ventricular tissue was homogenized in a buffer containing 20 mM of tris-(hydroxymethyl)-aminomethane (Tris-C1) (pH, 7.4), 150 mM of sodium chloride (NaCl), 2.5 mM of ethylenediamine tetraacetic acid (EDTA), 1% Triton-100, 10 μL/mL of phenylmethylsulfonyl fluoride (PMSF), 10 μL/mL of protein inhibitor cocktail (Pierce, Rockford, Ill.), and 10 μL/mL of phosphatase inhibitor cocktail II (Sigma-Aldrich, St. Louis, Mo.). Protein samples (5 to 20 μg) were separated via 10% sodium dodecyl sulfate polyacrylamide gel electrophoresis (SDS-PAGE) and were transferred to nitrocellulose membranes. […] The radiographic film images were scanned and analyzed with NIH ImageJ software.
For orientation: Immunoblotting shows a protein as a band on a membrane.

Data set [3] concerns the target T2, phosphorylated (Tyr 416) c-Src (Mus musculus, UniProt P05480).
T2 construct: The ventricular tissue was homogenized in a buffer; from tissue; host or cells: mouse ventricular tissue (wild-type and ACE8/8 mice)
As to the kind of experiment: Western blot of ventricular tissue, phospho-(Tyr416) c-Src. It is filed as in vivo. As to conditions: four weeks i.p. treatment, corrected for GAPDH. How it is done:
as §1, §2

The test system of data set [4] is Cx43. Put plainly: Western blot of ventricular tissue, Cx43. It is filed as in vivo, mouse. As to the method: as §1
The mice were killed, and their hearts were excised. The ventricular tissue was homogenized in a buffer containing 20 mM of tris-(hydroxymethyl)-aminomethane (Tris-C1) (pH, 7.4), 150 mM of sodium chloride (NaCl), 2.5 mM of ethylenediamine tetraacetic acid (EDTA), 1% Triton-100, 10 μL/mL of phenylmethylsulfonyl fluoride (PMSF), 10 μL/mL of protein inhibitor cocktail (Pierce, Rockford, Ill.), and 10 μL/mL of phosphatase inhibitor cocktail II (Sigma-Aldrich, St. Louis, Mo.). Protein samples (5 to 20 μg) were separated via 10% sodium dodecyl sulfate polyacrylamide gel electrophoresis (SDS-PAGE) and were transferred to nitrocellulose membranes. The membranes were blotted with the primary antibodies against c-Src, phosphorylated (Tyr 416) c-Src, and Cx43 (Cell Signaling, Danvers, Mass.). For a loading control, the membranes were blotted with a primary antibody against glyceraldehyde-3-phosphate dehydrogenase (GAPDH; Santa Cruz Biotech, Santa Cruz, Calif.). After treatment with secondary antirabbit or antimouse antibodies, imaging was performed with enhanced chemiluminescence. The radiographic film images were scanned and analyzed with NIH ImageJ software.

In data set [5] the test system is Cx43. Put plainly: Immunohistochemistry (immunostaining) for Cx43 in mouse hearts. It is filed as in vivo. As to the method: as §1
The mouse hearts were fixed in 10% formalin, after which 8-μm thick sections were blocked for 1 hour at room temperature and were then incubated with anti-Cx43 antibodies overnight at 4° C. at concentrations known to provide the best signal-to-noise ratio. The slides were reviewed with a Zeiss Axioskop microscope (Carl Zeiss, Inc, Thornwood, N.Y.), and photomicrographs with original magnification×40 were taken from the apex, the mid-left ventricle (LV), and the LV base. From each of those sites, photomicrographs were taken from the endocardium and epicardium. The Cx43 content was quantified with the use of a grid that divided the field of view into 200 squares. At the intersection points aligning with the intercalated disks, Cx43 was scored as “1” (present) or “0” (absent). The results were expressed as the percentage occupied by Cx43 in the total area examined, excluding pseudospaces. This method has been used previously to quantify levels of collagen and Cx43 in cardiac tissue (24; 25).

The test system of the next data set is gap junctions. As to the kind of experiment: Functional assessment of Cx43: Lucifer yellow dye spread in intact heart muscle. It is filed as in vivo, mouse. As to conditions: hearts of treated ACE8/8 mice. As to the method:
as §1
We used an established technique for measuring Cx43 function that involves fluorescent dye introduction and diffusion in intact heart muscle (26). Fresh hearts were obtained from wild-type, ACE8/8, ACE8/8 PP1-treated, and ACE8/8 PP3-treated mice. A sample from each heart was placed in phosphate buffered saline at 37° C., the anterior surface of the LV was punctured with a 27-gauge needle, and the sample was incubated with a droplet of 0.5% Lucifer yellow (LY) and a droplet of 0.5% Texas Red Dextran (TRD) in 150 mM of LiCl solution. […] Dye spread in longitudinal and transverse directions was assessed.

T1 sequence (P05480 whole entry): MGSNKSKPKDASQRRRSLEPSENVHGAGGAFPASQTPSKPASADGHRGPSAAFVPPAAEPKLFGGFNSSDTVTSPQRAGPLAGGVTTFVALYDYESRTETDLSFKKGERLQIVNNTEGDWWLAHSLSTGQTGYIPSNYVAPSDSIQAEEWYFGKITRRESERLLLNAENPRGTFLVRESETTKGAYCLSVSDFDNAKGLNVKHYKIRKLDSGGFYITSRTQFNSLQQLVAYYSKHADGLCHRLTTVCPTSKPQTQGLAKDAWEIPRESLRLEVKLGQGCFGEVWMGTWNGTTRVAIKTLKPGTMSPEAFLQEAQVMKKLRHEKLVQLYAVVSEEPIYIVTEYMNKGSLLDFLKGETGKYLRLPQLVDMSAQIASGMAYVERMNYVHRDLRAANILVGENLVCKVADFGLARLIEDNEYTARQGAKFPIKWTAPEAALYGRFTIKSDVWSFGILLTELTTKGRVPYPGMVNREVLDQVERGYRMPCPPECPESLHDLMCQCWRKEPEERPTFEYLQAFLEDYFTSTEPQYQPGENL
T2 sequence (P05480 whole entry): as above

As for `Cc1ccc(-c2nn(C(C)(C)C)c3ncnc(N)c23)cc1` [PP1, 1-(1,1-dimethylethyl)-1-(4-methylphenyl)-1H-pyrazolo[3,4-d]pyrimidin-4-amine], the mean survival time with ACE8/8 mice [1] is 24.7 ± 0.2 days. In addition, the “death in treated wild-type mice” value in the data set on wild-type mice (WT mice receiving PP1 1.5 mg/kg i.p. twice weekly for 4 weeks) is “No death happened”. The “adverse reaction in treated wild-type mice” value in the data set on wild-type mice (wild-type mice, PP1 1.5 mg/kg i.p. twice weekly for 4 weeks) is listed as “not associated with any adverse reaction”. The compound also registered a VT inducibility rate in the data set with ACE8/8 mice [2] of 50%. The “total c-Src protein level, relative to untreated ACE8/8 mice” value at c-Src amounted to 58%. The “phospho-(Tyr416) c-Src protein level, relative to untreated ACE8/8 mice” value in data set [3] came out at 75%. In the data set on Cx43 [4] (ACE8/8 mice, four weeks i.p. treatment), the “increase in Cx43 protein level vs untreated ACE8/8 mice (Western blot)” value is reported as 2.1 fold. Also, the “Cx43 level relative to normal level in wild-type mice (Western blot)” value in the data set with Cx43 [4] (treated ACE8/8 mice, untreated ACE8/8 36%) is on record as 68%. Further, the “increase in Cx43 level/content in ACE8/8 mouse hearts (immunostaining)” value in the data set on Cx43 [5] (vs untreated ACE8/8 mice) is 2 fold and 2.0 fold. The “overall Lucifer yellow dye spread” value in the data set with gap junctions (untreated ACE8/8 0.14±0.01 mm, WT 0.21±0.02 mm) was 0.20±0.02 mm and 0.21±0.02 mm.

Consider `Nc1ncnc2c1cnn2-c1ccccc1` [PP3, 1-phenyl-1H-pyrazolo[3,4-d]pyrimidin-4-amine], for which the mean survival time in the data set on ACE8/8 mice [1] came to 11.2 ± 1.2 days. Besides, in the data set with Cx43 [4] (ACE8/8 mice vs untreated ACE8/8), the “effect on total Cx43 protein level (Western blot), in words” value is “did not increase”. In addition, in the data set on Cx43 [5] (treated ACE8/8 mice, untreated ACE8/8 5.4±0.7%, wild-type 18.3±0.6%), the “Cx43 level, ratio of stained area for Cx43 to total field of view” value is listed as 6.5+/−1%. Also, the “effect on Cx43 level at the gap junctions (immunostaining), in words” value with Cx43 [5] (vs untreated ACE8/8 mice) is “did not increase”. In the data set with gap junctions, the “effect on dye diffusion, in words” value is “no statistically significant effect”.
